Experimental data from patent publication US12448632B2, “Guanidine degradation enzyme and methods of use” (Alliance for Sustainable Energy, LLC, priority 2020, dated 2025).

Tests used:
GD7942 (+sll1077) = assay: Guanidine tolerance test, cell growth; type: cell-based, Synechococcus elongatus PCC 7942
Description: Guanidine tolerance and degradation test. […] For guanidine degradation test, cyanobacterial strains were grown in 10 mL mBG11 free of nitrate while supplemented with 50 mM NaHCO3 and 5 mM or 1 mM guanidine chloride, under constant light of 50 μE m^−2 s^−1 on a rotary shaker at 150 rpm and 30° C. Every day, 1 mL of culture was sampled for reading OD730 and then transferred into an Eppendorf tube and centrifuged at 17000×g at room temperature for 2 min. The supernatants were stored at −20° C. for later analysis of guanidine.

Synechococcus 7942 [1] = type: cell-based, Synechococcus elongatus PCC 7942
Description: (§1) Guanidine tolerance and degradation test. For guanidine tolerance test, cyanobacterial strains were grown in 20 mL mBG11 medium supplemented with 0-1 mM guanidine and 50 mM NaHCO3. For guanidine degradation test, cyanobacterial strains were grown in 10 mL mBG11 free of nitrate while supplemented with 50 mM NaHCO3 and 5 mM or 1 mM guanidine chloride, under constant light of 50 μE m^−2 s^−1 on a rotary shaker at 150 rpm and 30° C. Every day, 1 mL of culture was sampled for reading OD730 and then transferred into an Eppendorf tube and centrifuged at 17000×g at room temperature for 2 min. The supernatants were stored at −20° C. for later analysis of guanidine.

Δsll1077 strain (PB805W) = assay: Growth in nitrate-deprived medium with guanidine; type: cell-based, Synechocystis sp. PCC 6803; conditions: guanidine-supplemented (5 mM) versus nitrogen-deprived conditions
Description: as §1

Synechococcus 7942 [2] = assay: Cell growth with urea in culture medium; type: cell-based, Synechococcus elongatus PCC 7942; conditions: 5 mM urea; nitrate-deprived or nitrate-replete conditions

Structure (SMILES)	cell growth (GD7942 (+sll1077); 1 mM guanidine in culture medium)	cell growth (GD7942 (+sll1077); 2 mM guanidine in culture medium)	guanidine concentration at which cell growth was already inhibited (Synechococcus 7942 [1]) [mM]	cell growth (Δsll1077 strain (PB805W))	impact on cell growth (Synechococcus 7942 [2])
N=C(N)N [guanidine]	not apparently repressed	only slightly inhibited	0.3	severely inhibited	–
NC(N)=O [urea]	–	–	–	–	did not show any apparent impact on the cell growth
